Earlier results as cited in US11441162B2, “Human gut microbiome-derived biosynthetic enzymes for production of fatty acid amides” (Massachusetts Institute of Technology, priority 2019, dated 2022).

Target: T1, GPR119 (Homo sapiens, UniProt Q8TDV5)
T1 sequence (Q8TDV5 1-335): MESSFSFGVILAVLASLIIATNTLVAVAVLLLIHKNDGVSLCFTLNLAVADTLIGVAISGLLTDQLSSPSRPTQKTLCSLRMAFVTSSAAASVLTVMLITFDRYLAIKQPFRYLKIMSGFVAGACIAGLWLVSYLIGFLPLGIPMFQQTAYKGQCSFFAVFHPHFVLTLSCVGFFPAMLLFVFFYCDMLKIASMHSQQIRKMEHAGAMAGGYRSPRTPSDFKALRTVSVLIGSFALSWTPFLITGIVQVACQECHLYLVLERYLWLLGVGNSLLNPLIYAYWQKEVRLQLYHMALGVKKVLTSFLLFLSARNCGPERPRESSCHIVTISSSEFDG
Details: previously reported human microbiome-derived FAA GPCR modulator; read-out: GPR119 agonist at (previously reported); cited from earlier work

SMILES: CCCCCCCC/C=C\CCCCCCCC(=O)NC(CO)CO [oleoyl serinol]
- EC50: 7 µM
